#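 Five concentrations, 48 hours, 96-well plates. GI50: concentration for 50% inhibition of growth.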 Active and inactive are the calls of the source. No stated cut-off is given here; in the data, active = GI50 up to about 1.1 µM and inactive = higher.
# Experiments:
# Experiment in all cases: inhibition of tumour cell growth, NCI panel, 48 h
# SK-MEL-28 = tested on: SK-MEL-28
# M14 = tested on: M14
# EKVX = tested on: EKVX
# SK-OV-3 = tested on: SK-OV-3
# CCRF-CEM = tested on: CCRF-CEM
# COLO 205 = tested on: COLO 205
# IGROV-1 = tested on: IGROV-1
# M19-MEL = tested on: M19-MEL
# TK-10 = tested on: TK-10
# HT-29 = tested on: HT-29
# UACC-62 = tested on: UACC-62
# DMS-273 = tested on: DMS-273
# HCC 2998 = tested on: HCC 2998
# LOX IMVI = tested on: LOX IMVI
# HOP-18 = tested on: HOP-18
# SF-268 = tested on: SF-268
# RXF 393 = tested on: RXF 393
# NCI-H226 = tested on: NCI-H226
# SNB-78 = tested on: SNB-78
# K562 = tested on: K562
# OVCAR-3 = tested on: OVCAR-3
# NCI-H23 = tested on: NCI-H23
# Malme-3M = tested on: Malme-3M
# UO-31 = tested on: UO-31
# XF498 = tested on: XF498
# HCT-15 = tested on: HCT-15
# DLD-1 = tested on: DLD-1
# OVCAR-8 = tested on: OVCAR-8
# SF-539 = tested on: SF-539
# U-251 = tested on: U-251
# OVCAR-5 = tested on: OVCAR-5
# RXF 631 = tested on: RXF 631
# OVCAR-4 = tested on: OVCAR-4
# DMS-114 = tested on: DMS-114
# HL-60 = tested on: HL-60
# LXFL 529 = tested on: LXFL 529
# SW-620 = tested on: SW-620
# SNB-75 = tested on: SNB-75
# RPMI-8226 = tested on: RPMI-8226
# SN12C = tested on: SN12C
# NCI-H460 = tested on: NCI-H460
# ACHN = tested on: ACHN
# SNB-19 = tested on: SNB-19
# SF-295 = tested on: SF-295
# KM12 = tested on: KM12
# A549 = tested on: A549
# 786-0 = tested on: 786-0
# SR = tested on: SR
# MOLT-4 = tested on: MOLT-4
# SK-MEL-5 = tested on: SK-MEL-5
# HOP-92 = tested on: HOP-92
# CAKI-1 = tested on: CAKI-1
# HOP-62 = tested on: HOP-62
# A498 = tested on: A498
# SK-MEL-2 = tested on: SK-MEL-2
# KM-20L2 = tested on: KM-20L2
# HCT-116 = tested on: HCT-116
# NCI-H522 = tested on: NCI-H522
# UACC-257 = tested on: UACC-257
smiles,measurement,setting,value
N#CC1(C2CC(=O)N(c3ccccc3)C2=O)CCCCC1=O (stereo not drawn),GI50,SK-MEL-28,> 100 µM (inactive)
same,GI50,M14,> 100 µM (inactive)
same,GI50,EKVX,> 100 µM (inactive)
same,GI50,SK-OV-3,> 100 µM (inactive)
same,GI50,CCRF-CEM,> 100 µM (inactive)
same,GI50,COLO 205,> 100 µM (inactive)
same,GI50,IGROV-1,> 100 µM (inactive)
same,GI50,M19-MEL,> 100 µM (inactive)
same,GI50,TK-10,> 100 µM (inactive)
same,GI50,HT-29,> 100 µM (inactive)
same,GI50,UACC-62,> 100 µM (inactive)
same,GI50,DMS-273,> 100 µM (inactive)
same,GI50,HCC 2998,0.104 µM (active)
same,GI50,LOX IMVI,> 100 µM (inactive)
same,GI50,HOP-18,> 100 µM (inactive)
same,GI50,SF-268,> 100 µM (inactive)
same,GI50,RXF 393,> 100 µM (inactive)
same,GI50,NCI-H226,> 100 µM (inactive)
same,GI50,SNB-78,> 100 µM (inactive)
same,GI50,K562,> 100 µM (inactive)
same,GI50,OVCAR-3,> 100 µM (inactive)
same,GI50,NCI-H23,> 100 µM (inactive)
same,GI50,Malme-3M,0.498 µM (active)
same,GI50,UO-31,> 100 µM (inactive)
same,GI50,XF498,9.2 µM (inactive)
same,GI50,HCT-15,> 100 µM
same,GI50,DLD-1,> 100 µM (inactive)
same,GI50,OVCAR-8,> 100 µM (inactive)
same,GI50,SF-539,> 100 µM (inactive)
same,GI50,U-251,> 100 µM (inactive)
same,GI50,OVCAR-5,> 100 µM (inactive)
same,GI50,RXF 631,> 100 µM (inactive)
same,GI50,OVCAR-4,> 100 µM (inactive)
same,GI50,DMS-114,> 100 µM (inactive)
same,GI50,HL-60,> 100 µM (inactive)
same,GI50,LXFL 529,> 100 µM (inactive)
same,GI50,SW-620,> 100 µM (inactive)
same,GI50,SNB-75,> 100 µM (inactive)
same,GI50,RPMI-8226,> 100 µM (inactive)
same,GI50,SN12C,0.791 µM (active)
same,GI50,NCI-H460,> 100 µM (inactive)
same,GI50,ACHN,> 100 µM (inactive)
same,GI50,SNB-19,> 100 µM (inactive)
same,GI50,SF-295,> 100 µM (inactive)
same,GI50,KM12,> 100 µM (inactive)
same,GI50,A549,> 100 µM (inactive)
same,GI50,786-0,> 100 µM (inactive)
same,GI50,SR,> 100 µM (inactive)
same,GI50,MOLT-4,> 100 µM (inactive)
same,GI50,SK-MEL-5,> 100 µM (inactive)
CN(C)CCC(/C=C/c1ccccc1)=N\Nc1ccc(Cl)c(Cl)c1,GI50,SK-MEL-28,9.33 µM (inactive)
same,GI50,M14,2.72 µM (inactive)
same,GI50,EKVX,3.66 µM (inactive)
same,GI50,SK-OV-3,4.53 µM (inactive)
same,GI50,CCRF-CEM,2.91 µM (inactive)
same,GI50,COLO 205,2.6 µM (inactive)
same,GI50,IGROV-1,3.04 µM (inactive)
same,GI50,M19-MEL,4.31 µM (inactive)
same,GI50,HOP-92,1.41 µM (inactive)
same,GI50,TK-10,2.38 µM (inactive)
same,GI50,HT-29,2.24 µM (inactive)
same,GI50,UACC-62,2.55 µM (inactive)
same,GI50,CAKI-1,2.61 µM (inactive)
same,GI50,DMS-273,2.36 µM (inactive)
same,GI50,LOX IMVI,1.99 µM (inactive)
same,GI50,HOP-18,2.67 µM (inactive)
same,GI50,SF-268,2.56 µM (inactive)
same,GI50,RXF 393,2.74 µM (inactive)
same,GI50,SNB-78,3.58 µM (inactive)
same,GI50,K562,2.23 µM (inactive)
same,GI50,OVCAR-3,4.27 µM (inactive)
same,GI50,NCI-H23,2.81 µM (inactive)
same,GI50,HOP-62,3.15 µM (inactive)
same,GI50,Malme-3M,14.2 µM (inactive)
same,GI50,UO-31,1.64 µM (inactive)
same,GI50,XF498,2.3 µM (inactive)
same,GI50,A498,4.63 µM (inactive)
same,GI50,HCT-15,3.6 µM
same,GI50,DLD-1,3.49 µM (inactive)
same,GI50,SK-MEL-2,2.49 µM (inactive)
same,GI50,KM-20L2,2.02 µM (inactive)
same,GI50,OVCAR-8,2.7 µM (inactive)
same,GI50,SF-539,2.2 µM (inactive)
same,GI50,U-251,4.59 µM (inactive)
same,GI50,OVCAR-5,3.33 µM (inactive)
same,GI50,RXF 631,2.37 µM (inactive)
same,GI50,OVCAR-4,3.56 µM (inactive)
same,GI50,HL-60,2.7 µM (inactive)
same,GI50,LXFL 529,2 µM (inactive)
same,GI50,HCT-116,3.56 µM (inactive)
same,GI50,SW-620,3.45 µM (inactive)
same,GI50,SNB-75,2.27 µM (inactive)
same,GI50,RPMI-8226,3.44 µM (inactive)
same,GI50,SN12C,3.52 µM (inactive)
same,GI50,NCI-H460,2.01 µM (inactive)
same,GI50,NCI-H522,2.1 µM (inactive)
same,GI50,ACHN,1.92 µM (inactive)
same,GI50,SNB-19,5.53 µM (inactive)
same,GI50,SF-295,3.78 µM (inactive)
same,GI50,KM12,2.05 µM (inactive)
same,GI50,UACC-257,3.33 µM (inactive)
same,GI50,A549,3.13 µM (inactive)
same,GI50,786-0,2.69 µM (inactive)
same,GI50,SR,2.09 µM (inactive)
same,GI50,MOLT-4,2.44 µM (inactive)
same,GI50,SK-MEL-5,4.49 µM (inactive)
CC(=O)c1c(O)c2c([nH]c1=O)CCCC2,GI50,SK-MEL-28,94.4 µM (inactive)
same,GI50,M14,39.3 µM (inactive)
same,GI50,EKVX,51.1 µM (inactive)
same,GI50,SK-OV-3,25.6 µM (inactive)
same,GI50,CCRF-CEM,> 100 µM (inactive)
same,GI50,COLO 205,> 100 µM (inactive)
same,GI50,IGROV-1,32.9 µM (inactive)
same,GI50,M19-MEL,21 µM (inactive)
same,GI50,HOP-92,> 100 µM (inactive)
same,GI50,TK-10,> 100 µM (inactive)
same,GI50,HT-29,24.2 µM (inactive)
same,GI50,UACC-62,18.1 µM (inactive)
same,GI50,CAKI-1,> 100 µM (inactive)
same,GI50,DMS-273,25.6 µM (inactive)
same,GI50,HCC 2998,8.05 µM (inactive)
same,GI50,LOX IMVI,20.1 µM (inactive)
same,GI50,HOP-18,> 100 µM (inactive)
same,GI50,SF-268,46.8 µM (inactive)
same,GI50,RXF 393,22.3 µM (inactive)
same,GI50,SNB-78,> 100 µM (inactive)
same,GI50,K562,> 100 µM (inactive)
same,GI50,OVCAR-3,> 100 µM (inactive)
same,GI50,NCI-H23,41.1 µM (inactive)
same,GI50,HOP-62,19.9 µM (inactive)
same,GI50,Malme-3M,> 100 µM (inactive)
same,GI50,UO-31,17.2 µM (inactive)
same,GI50,XF498,64.6 µM (inactive)
same,GI50,HCT-15,48.1 µM
same,GI50,DLD-1,21.6 µM (inactive)
same,GI50,KM-20L2,43.1 µM (inactive)
same,GI50,OVCAR-8,82.2 µM (inactive)
same,GI50,U-251,23.6 µM (inactive)
same,GI50,RXF 631,21.8 µM (inactive)
same,GI50,OVCAR-4,> 100 µM (inactive)
same,GI50,DMS-114,25.4 µM (inactive)
same,GI50,HL-60,48.3 µM (inactive)
same,GI50,LXFL 529,> 100 µM (inactive)
same,GI50,SW-620,> 100 µM (inactive)
same,GI50,SNB-75,10.6 µM (inactive)
same,GI50,SN12C,22.5 µM (inactive)
same,GI50,NCI-H460,6.84 µM (inactive)
same,GI50,ACHN,> 100 µM (inactive)
same,GI50,SNB-19,18 µM (inactive)
same,GI50,SF-295,15.7 µM (inactive)
same,GI50,A549,30 µM (inactive)
same,GI50,786-0,> 100 µM (inactive)
same,GI50,MOLT-4,8.34 µM (inactive)
